Data on ten substances can be found in US6531446B1, “Peptides having biological activity” (Korea Advanced Institute of Science and Technology, priority 1998, dated 2003).

Where two headings read alike, the source gives them in different places. No end group written: not given here. Some results are limits rather than exact numbers.

What all share (format): cell-based
Assay [1] has as its system Psudomonas putida. In words: Minimal inhibitory concentration, 96-well broth dilution. Conditions: Gram-negative; second part of Table 2. Here is the method: (§1) By using the peptides as in Example 1, the minimal inhibitory concentration of the peptides were determined against a variety of microorganisms. Bacteria and fungi were incubated overnight in Mller-Hinton and Saboraud media, respectively, at 37 and 30° C., respectively, and were inoculated in media for 2 hours to a midlogarithmic phase. After diluting the bacteria and fungi to 10^4-10^5 per 1 ml, they were inoculated into a 96-well plate containing serially diluted peptides and incubated for additional 18 hours. The minimal inhibitory concentration was determined at a concentration that inhibits the growth of the microorganisms by measuring the absorbance.
(In general: Broth dilution looks for growth in wells or tubes with falling amounts of substance.)

Assay [2] has as its system Streptococcus pneumoniae. Here is the method:
as §1

Assay [3] deals with Serratia sp. Here is the method: as §1
For assay [4], the system named is Salmonella typhimurium. On the procedure:
as §1

Assay [5] has as its system Bacillus subtilis. Here is the method:
as §1

For assay [6], the system named is Staphylococcus aureus. Here is the method:
as §1

The subject of assay [7] is Escherichia coli. Here is the method:
as §1

For assay [8], the system named is Cryptococcus neoformans. Here is the method: as §1
The subject of assay [9] is Candida albicans. Here is the method: as §1
For assay [10], the system named is Streptococcus mutans. Here is the method:
as §1

In assay [11] the test system is Saccharomyces cerevisiae. Here is the method: as §1
The subject of assay [12] is a variety of microorganisms. In words: Estimation of antimicrobial activity, overall statement in words. As to conditions: result in words. Here is the method:
as §1

Setting [13] is: Gram-positive, second part of Table 2.
Where [14] appears, read: Gram-negative, second part of Table 2.

Take “Arg Ala Gly Leu Gln Phe Pro Val Gly Arg Val His Arg Leu Leu Arg Lys-NH2 (RAGLQFPVGRVHRLLRK-NH2) [Seq No. 16]”: the “Minimal Inhibitory Concentrations” value in assay [1] is listed as 2 μg/m; in [2] (setting [13]) it was 1 μg/m; in assay [3] (setting [14]) it was 1 μg/m; in assay [4] (setting [14]), 2 μg/m; in assay [5] (setting [13]), 1 μg/m; in [6] (setting [13]), 1 μg/m. Also, the “Minimal Inhibitory Concentrations” value is reported as 2 μg/m in assay [7] (setting [14]); 1 μg/m in assay [8] (Fungi, second part of Table 2); 2 μg/m in [9] (Fungi, second part of Table 2); 0.5 μg/m in [10] (setting [13]); 2 μg/m in assay [11] (Fungi, second part of Table 2).

For PVGRVHRLLRK [Seq No. 7], the antimicrobial activity result in assay [12] is given as “strong antimicrobial activity”. Besides, the “Minimal Inhibitory Concentrations” value is 50 µg/mL in assay [2] (18 h); 25 µg/mL in [3] (18 h); 50 µg/mL in [4] (murium, 18 h); 25 µg/mL in assay [5] (18 h); 50 µg/mL in [6] (18 h); 25 µg/mL in [7] (18 h). Also, the “Minimal Inhibitory Concentrations” value turned out to be 50 µg/mL in assay [8] (18 h), 50 µg/mL in assay [9] (18 h), 25 µg/mL in assay [10] (18 h) and 50 µg/mL in assay [11] (18 h).

As for RAGLQFPVGRLLR [Buf(5-13)[RLLR]], the “Minimal Inhibitory Concentrations” value in assay [1] is given as 32 μg/m; in assay [2] (setting [13]), 32 μg/m; in assay [3] (setting [14]), 32 μg/m; in assay [4] (setting [14]), 16 μg/m; in assay [5] (setting [13]), 32 μg/m; in assay [6] (setting [13]), 64 μg/m. The “Minimal Inhibitory Concentrations” value is 32 μg/m in assay [7] (setting [14]); 32 μg/m in [8] (Fungi, second part of Table 2); 32 μg/m in assay [9] (Fungi, second part of Table 2); 16 μg/m in assay [10] (setting [13]); 32 μg/m in assay [11] (Fungi, second part of Table 2).

For RAGLQFPVGRLLRRLLR [Buf(5-13)[RLLR]2], the “Minimal Inhibitory Concentrations” value in [1] is recorded as 16 μg/m; in assay [2] (setting [13]) it was 8 μg/m; in assay [3] (setting [14]), 8 μg/m; in assay [4] (setting [14]) it was 4 μg/m; in assay [5] (setting [13]), 4 μg/m; in assay [6] (setting [13]), 8 μg/m. Moreover, the “Minimal Inhibitory Concentrations” value in [7] (setting [14]) turned out to be 8 μg/m; in assay [8] (Fungi, second part of Table 2), 4 μg/m; in assay [9] (Fungi, second part of Table 2) it was 4 μg/m; in assay [10] (setting [13]) it was 16 μg/m; in assay [11] (Fungi, second part of Table 2) it was 8 μg/m.

Take RAGLQFPVGRLLRRLLRRLLR [Seq No. 15]: the “Minimal Inhibitory Concentrations” value in assay [1], in assay [2] (setting [13]), in assay [3] (setting [14]), in assay [4] (setting [14]), in assay [5] (setting [13]) and in assay [6] (setting [13]) was 1 μg/m in each case. For the same substance, the “Minimal Inhibitory Concentrations” value amounted to 1 μg/m in assay [7] (setting [14]); 1 μg/m in assay [8] (Fungi, second part of Table 2); 2 μg/m in assay [9] (Fungi, second part of Table 2); 0.5 μg/m in [10] (setting [13]); 4 μg/m in assay [11] (Fungi, second part of Table 2). Further, the antimicrobial activity entry in assay [12] is “especially potent antimicrobial activity”.

RKGLQKLVGRVHRLLRK [Seq No. 12]: the “Minimal Inhibitory Concentrations” value is listed as 36 μg/m in assay [1]; 18 μg/m in [2] (setting [13]); 4 μg/m in [3] (setting [14]); 18 μg/m in assay [4] (setting [14]); 18 μg/m in assay [5] (setting [13]); 18 μg/m in assay [6] (setting [13]). The “Minimal Inhibitory Concentrations” value is 18 μg/m in assay [7] (setting [14]); 8 μg/m in assay [8] (Fungi, second part of Table 2); 16 μg/m in [9] (Fungi, second part of Table 2); 36 μg/m in [10] (setting [13]); 4 μg/m in [11] (Fungi, second part of Table 2).

As to RLLRRLLRRLLR [(RLLR)3], the “Minimal Inhibitory Concentrations” value in assay [1], in [2] (setting [13]), in assay [3] (setting [14]), in assay [4] (setting [14]), in [5] (setting [13]) and in assay [6] (setting [13]) was 16 μg/m in each case. For the same substance, the “Minimal Inhibitory Concentrations” value in assay [7] (setting [14]) is reported as 32 μg/m; in assay [8] (Fungi, second part of Table 2) it was 32 μg/m; in assay [9] (Fungi, second part of Table 2), 32 μg/m; in assay [10] (setting [13]), 16 μg/m; in assay [11] (Fungi, second part of Table 2) it was 32 μg/m.

Regarding RLLRRLLRRLLRRLLR [(RLLR)4], the “Minimal Inhibitory Concentrations” value in [1] is reported as 2 μg/m; in assay [2] (setting [13]) it was 2 μg/m; in assay [3] (setting [14]), 1 μg/m; in assay [4] (setting [14]) it was 2 μg/m; in assay [5] (setting [13]), 2 μg/m; in [6] (setting [13]), 1 μg/m. In addition, the “Minimal Inhibitory Concentrations” value is recorded as 2 μg/m in [7] (setting [14]); 8 μg/m in assay [8] (Fungi, second part of Table 2); 8 μg/m in assay [9] (Fungi, second part of Table 2); 2 μg/m in [10] (setting [13]); 8 μg/m in [11] (Fungi, second part of Table 2). The antimicrobial activity result in [12] was “strong antimicrobial activities”.

On to RLLRRLLRRLLRRLLRRLLR [Seq No. 13], for which the “Minimal Inhibitory Concentrations” value in [1] is recorded as 2 μg/m; in assay [2] (setting [13]), 2 μg/m; in [3] (setting [14]), 1 μg/m; in assay [4] (setting [14]), 2 μg/m; in [5] (setting [13]), 2 μg/m; in [6] (setting [13]), 1 μg/m. The “Minimal Inhibitory Concentrations” value in assay [7] (setting [14]) worked out at 2 μg/m; in [8] (Fungi, second part of Table 2) it was 8 μg/m; in [9] (Fungi, second part of Table 2), 8 μg/m; in assay [10] (setting [13]), 2 μg/m; in assay [11] (Fungi, second part of Table 2), 8 μg/m. Besides, the antimicrobial activity result in assay [12] is listed as “strong antimicrobial activities”.

On to RVHRLLRRVHRLLRRVHRLLR [Seq No. 14], for which the “Minimal Inhibitory Concentrations” value in assay [1] turned out to be 50 μg/m; in assay [2] (setting [13]), 100 μg/m; in assay [3] (setting [14]), 3 μg/m; in [4] (setting [14]), 50 μg/m; in assay [5] (setting [13]), 6 μg/m; in [6] (setting [13]), 50 μg/m. For the same substance, the “Minimal Inhibitory Concentrations” value in [7] (setting [14]) is recorded as 100 μg/m; in [8] (Fungi, second part of Table 2), 100 μg/m; in [9] (Fungi, second part of Table 2), greater than 200 μg/m; in [10] (setting [13]) it was 25 μg/m; in assay [11] (Fungi, second part of Table 2), greater than 200 μg/m.
